Like-named read-outs stand apart in the source and are kept apart here.
How the values were obtained:
[1] = Study 2: midazolam pharmacokinetics alone or with single and multiple dose entrectinib
Description: Following completion of this part of the study, subjects could continue in an expanded access portion of the study which is not discussed here.

clinical = conditions: human, oral
CYP3A4/5 = assay: Effect of CYP-selective inhibitors on metabolism of entrectinib by pooled human liver microsomes; assay type: in vitro ADME
CYP2D6 = CYP2D6 (Homo sapiens, UniProt P10635); assay: as above; conditions: inhibitor 1 µM, 1 µM entrectinib
CYP2D6, sequence (P10635 whole entry): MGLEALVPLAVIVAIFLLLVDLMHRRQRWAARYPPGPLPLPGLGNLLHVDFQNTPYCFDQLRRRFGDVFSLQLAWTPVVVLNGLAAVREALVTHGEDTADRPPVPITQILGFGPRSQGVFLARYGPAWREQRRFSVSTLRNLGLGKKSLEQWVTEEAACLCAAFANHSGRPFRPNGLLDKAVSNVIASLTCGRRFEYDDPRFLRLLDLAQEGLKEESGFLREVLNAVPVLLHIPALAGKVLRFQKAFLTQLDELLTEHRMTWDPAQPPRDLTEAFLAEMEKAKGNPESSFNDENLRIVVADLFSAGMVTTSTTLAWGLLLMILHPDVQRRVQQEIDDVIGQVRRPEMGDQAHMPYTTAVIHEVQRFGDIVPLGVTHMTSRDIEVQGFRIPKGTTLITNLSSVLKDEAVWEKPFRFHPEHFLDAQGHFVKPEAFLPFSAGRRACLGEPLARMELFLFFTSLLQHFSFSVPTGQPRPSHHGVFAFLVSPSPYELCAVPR

[2] = Effect of Multiple Dose Entrectinib
[3] = Effect of Single Dose Entrectinib
[4] = Midazolam alone, geometric mean (geometric CV)
[5] = Midazolam with multiple dose entrectinib 600 mg/day, geometric mean (geometric CV)
[6] = Midazolam with multiple dose entrectinib, geometric mean (geometric CV)
[7] = Midazolam with multiple dose entrectinib, median (minimum, maximum)
[8] = Midazolam with single dose entrectinib 600 mg, geometric mean (geometric CV)
[9] = Midazolam with single dose entrectinib, geometric mean (geometric CV)
[10] = Digoxin alone, geometric mean (geometric CV)
[11] = digoxin with entrectinib vs alone
[12] = single dose entrectinib 600 mg vs digoxin alone

For `OCc1ncc2n1-c1ccc(Cl)cc1C(c1ccccc1F)=NC2` [1’-hydroxymidazolam], the “Ratio of adjusted geometric means (90% Confidence Intervals), AUCinf” value (from here on “Ratio … (90% Confidence Intervals), AUCinf”) [1, 2] was 0.89 (0.70, 1.12), the “Ratio of adjusted geometric means (90% Confidence Intervals), Cmax” value (shortened to “Ratio … (90% Confidence Intervals), Cmax”) [1, 2] was 0.49 (0.36, 0.67) and the “Ratio … (90% Confidence Intervals), AUCinf” value [1, 3] was 0.96 (0.83, 1.10). The “Ratio … (90% Confidence Intervals), Cmax” value [1, 3] was 0.62 (0.50, 0.76), the Cmax [1, 4] was 6.57 nM and the t1/2 [1, 4] was 3.71 (81%) h. The Tmax ([1]; Midazolam alone, median (minimum, maximum)) was 0.5 (0.25, 1.00) h, the AUCinf ([1]; Midazolam alone, single 7.5 mg midazolam dose (title), subjects with advanced solid tumors, geometric mean (geometric CV)) was 14.9 (60%) nM•h and the AUCinf [1, 5] was 14.0 (42%) nM•h. The Cmax [1, 5] was 3.51 nM, the t1/2 [1, 6] was 5.37 (75%) h and the Tmax [1, 7] was 0.75 (0.5, 5.97) h. The AUCinf [1, 8] was 14.4 (52%) nM•h, the Cmax [1, 8] was 4.21 nM and the t1/2 [1, 9] was 4.56 (49%) h. The Tmax ([1]; Midazolam with single dose entrectinib, median (minimum, maximum)) was 1.0 (0.48, 23.6) h, the “metabolic ratio of metabolite to parent for AUCinf and Cmax, point estimates” value ([1]; coadministration with multiple-dose entrectinib vs midazolam alone) was 59% to 64% and the “decrease of 1’-hydroxymidazolam metabolite-to-parent ratio” value ([1]; multiple oral doses of entrectinib at steady-state) was 41%.
In the case of `C[C@H]1O[C@@H](O[C@H]2[C@@H](O)C[C@H](O[C@H]3[C@@H](O)C[C@H](O[C@H]4CC[C@@]5(C)[C@H](CC[C@@H]6[C@@H]5C[C@@H](O)[C@]5(C)[C@@H](C7=CC(=O)OC7)CC[C@]65O)C4)O[C@@H]3C)O[C@@H]2C)C[C@H](O)[C@@H]1O` [Digoxin], the Cmax [10] is reported as 1.97 nM, the “fe, percent of dose excreted unchanged in urine” value [10] is reported as 40.2 (13%) and the t1/2 [10] is reported as 35.9 (15%) h. For the same molecule, the “fe, percent of dose excreted unchanged in urine” value (Digoxin alone, geometric mean (geometric CV), listed as digoxin) was 40%, the Tmax (Digoxin alone, median (minimum, maximum)) was 1.0 (0.5, 1.0) h and the CLR (Digoxin alone, renal clearance, geometric mean (geometric CV)) was 130 (16%) mL/min. For the same molecule, the “fe, percent of dose excreted unchanged in urine” value (Digoxin with single 600 mg entrectinib, geometric mean (geometric CV)) was 44.0 (14%), the “fe, percent of dose excreted unchanged in urine” value (Digoxin with single 600 mg entrectinib, geometric mean (geometric CV), listed as digoxin) was 44% and the “Ratio … (90% Confidence Intervals), AUCinf” value [11] was 1.18 (1.06, 1.32). The “Ratio of adjusted geometric means (90% Confidence Intervals), CLR” value [11] was 0.95 (0.91, 0.98), the “Ratio … (90% Confidence Intervals), Cmax” value [11] was 1.28 (0.98, 1.67) and the “geometric mean ratio of CLR with and without entrectinib” value (exploratory analysis, 90% CI: 90.9%, 98.4%) was 94.6%. The Tmax later (single 600 mg dose of entrectinib coadministered with digoxin) was “approximately 1 h”, the “increase of AUCinf” value [12] was 18% and the “increase of Cmax” value [12] was 28%. The “increase in digoxin exposure” value (single oral dose of entrectinib coadministered) was 20–30%, the AUC(0-inf) (clinical; plasma, 75 mg) was 0.0342 µM·h and the AUC(0-inf) (clinical; plasma, 600 mg) was 0.0404 µM·h. For the same molecule, the Cmax (clinical; plasma, 600 mg) was 2.52 nM, the Tmax (clinical; plasma, 600 mg) was 2 h and the half-life (clinical; plasma, 600 mg) was 38.4 h. For the same molecule, the CL renal (clinical; urine, 600 mg) was 123 mL/min.
In the case of `CC(=O)N1CCN(c2ccc(OCC3COC(Cn4ccnc4)(c4ccc(Cl)cc4Cl)O3)cc2)CC1` (stereo not drawn) [Ketoconazole], the “inhibition of entrectinib metabolism depending on the metabolite formed” value (CYP3A4/5; human liver microsomes) is reported as 50–80%, the inhibition at 1 µM (CYP3A4/5; human, pooled human liver microsomes, probe entrectinib (metabolism to M5)) is reported as 82 ± 3% and the “Effect on Formation of other Entrectinib Metabolites” value (CYP3A4/5; inhibitor 1 µM, 1 µM entrectinib, pooled human liver microsomes) is reported as “+ + + (> 50% inhibition of multiple metabolites)”.
With `Cc1ncc2n1-c1ccc(Cl)cc1C(c1ccccc1F)=NC2` [Midazolam] the t1/2 [1, 6] was 6.4 (68%) h, the Tmax [1, 7] was 0.50 (0, 1.05) h and the t1/2 [1, 9] was 5.33 (44%) h. The half-life ([1]; human, plasma, oral) was 8.13 h, the Cmax ([1]; human, plasma, oral, 7.5 mg) was 19 nM and the Tmax ([1]; human, plasma, oral, 7.5 mg) was 0.49 h. The half-life ([1]; human, plasma, oral, 7.5 mg) was 5.2 h, the AUC(0-inf) ([1]; human, plasma, oral, 600 mg) was 0.0437 µM·h and the Cmax ([1]; human, plasma, oral, 600 mg) was 12.9 nM. For the same molecule, the “mean t1/2” value ([1]; midazolam with a single dose of entrectinib) was 5.73 h.
In the case of `C=C[C@H]1C[N@@]2CC[C@H]1C[C@@H]2[C@@H](O)c1ccnc2ccc(OC)cc12` [Quinidine], the “Effect on Formation of other Entrectinib Metabolites” value (CYP2D6) is reported as “+ (> 20% inhibition of 1 metabolite)”.
